Reference: patent US10875876B2, “Cyclized sulfamoylarylamide derivatives and the use thereof as medicaments for the treatment of hepatitis B” (priority 2015, dated 2020)
pEC50: −log10 of the molar value.

Legend:
[1] = test system: HBV; test: anti HBV activity, HepG2.117 cell line, intracellular HBV DNA by realtime PCR; format: cell-based; details: Hepatitis B virus, HepG2.117, 72 h, HepG2.117 cell line (Tet-off), 3 days of treatment, intracellular HBV DNA quantified by realtime PCR; read-out: HBV-AVE-HepG2.117 EC50
Procedure, shortened: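 HepG2.117 cells, a Tet-off line that replicates HBV without doxycycline, were induced and then treated in duplicate with serially diluted compound. After 3 days, intracellular HBV DNA was quantified by real-time PCR with an HBV-specific primer set and probe.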

[2] = Cytotoxicity in HepG2 cells, Resazurin assay; details: human, HepG2 cells, TOX-HepG2-4 d CC50 (μM), HepG2 cells incubated for 4 days, viability by Resazurin assay

| SMILES | pEC50 [1] | CC50 at 4 days [2] |
| --- | --- | --- |
| CC(C)C(O)C1COc2c(cn(C)c2C(=O)Nc2ccc(F)c(C#N)c2)S(=O)(=O)N1 (stereo not drawn) [Compound 119a, N-(3-cyano-4-fluoro-phenyl)-3-(1-hydroxy-2-methyl-propyl)-7-methyl-1,1-dioxo-3,4-dihydro-2H-pyrrolo[3,4-b][1,4,5]oxathiazepine-6-carboxamide] | 7.96 | > 25 µM |
| Cn1cc2c(c1C(=O)Nc1ccc(F)c(C#N)c1)OC[C@H](C(O)C1CC1)NS2(=O)=O (stereo partly drawn) [Compound 120a, (3R)—N-(3-cyano-4-fluoro-phenyl)-3-[cyclopropyl(hydroxy)methyl]-7-methyl-1,1-dioxo-3,4-dihydro-2H-pyrrolo[3,4-b][1,4,5]oxathiazepine-6-carboxamide] | 8.15 | > 25 µM |
| CCC(O)[C@H]1COc2c(cn(C)c2C(=O)Nc2ccc(F)c(C#N)c2)S(=O)(=O)N1 (stereo partly drawn) [Compound 122a, (3R)—N-(3-cyano-4-fluoro-phenyl)-3-(1-hydroxypropyl)-7-methyl-1,1-dioxo-3,4-dihydro-2H-pyrrolo[3,4-b][1,4,5]oxathiazepine-6-carboxamide] | 7.92 | > 25 µM |
| Cn1cc2c(c1C(=O)Nc1ccc(F)c(F)c1)OC[C@@H](C(O)C(F)(F)F)NS2(=O)=O (stereo partly drawn) [Compound 123, (3S)—N-(3,4-difluorophenyl)-7-methyl-1,1-dioxo-3-(2,2,2-trifluoro-1-hydroxy-ethyl)-3,4-dihydro-2H-pyrrolo[3,4-b][1,4,5]oxathiazepine-6-carboxamide] | 7.72 | > 25 µM |
| CCC(O)[C@H]1COc2c(cn(C)c2C(=O)Nc2ccc(F)c(C(F)F)c2)S(=O)(=O)N1 (stereo partly drawn) [Compound 124a, (3R)—N-[3-(difluoromethyl)-4-fluoro-phenyl]-3-(1-hydroxypropyl)-7-methyl-1,1-dioxo-3,4-dihydro-2H-pyrrolo[3,4-b][1,4,5]oxathiazepine-6-carboxamide] | 8.30 | > 25 µM |
| COCOC(c1ccccn1)C1COc2c(cn(C)c2C(=O)Nc2ccc(F)c(F)c2)S(=O)(=O)N1 (stereo not drawn) [Compound 129, N-(3,4-difluorophenyl)-3-[methoxymethoxy(2-pyridyl)methyl]-7-methyl-1,1-dioxo-3,4-dihydro-2H-pyrrolo[3,4-b][1,4,5]oxathiazepine-6-carboxamide] | 7.92 | > 25 µM |
| CCC(O)[C@H]1COc2c(cn(C)c2C(=O)Nc2ccc(F)c(F)c2)S(=O)(=O)N1 (stereo partly drawn) [Compound 130a, (3R)—N-(3,4-difluorophenyl)-3-(1-hydroxypropyl)-7-methyl-1,1-dioxo-3,4-dihydro-2H-pyrrolo[3,4-b][1,4,5]oxathiazepine-6-carboxamide] | 7.74 | > 25 µM |
| Cn1cc2c(c1C(=O)Nc1ccc(F)c(F)c1)CCC1(COC1)NS2(=O)=O [Compound 131, N-(3,4-difluorophenyl)-7-methyl-1,1-dioxo-spiro[4,5-dihydro-2H-pyrrolo[3,4-f]thiazepine-3,3′-oxetane]-6-carboxamide] | 7.64 | > 25 µM |
| Cn1cc2c(c1C(=O)Nc1ccc(F)c(F)c1)C=CC1(COC1)NS2(=O)=O [Compound 132, N-(3,4-difluorophenyl)-7-methyl-1,1-dioxo-spiro[2H-pyrrolo[3,4-f]-thiazepine-3,3′-oxetane]-6-carboxamide] | 7.72 | > 25 µM |
| Cn1cc2c(c1C(=O)Nc1ccc(F)c(F)c1)OCC(C)(C)NS2(=O)=O [Compound 133, N-(3,4-difluorophenyl)-3,3,7-trimethyl-1,1-dioxo-2,4-dihydropyrrolo-[3,4-b][1,4,5]oxathiazepine-6-carboxamide] | 7.96 | > 25 µM |
| Cn1cc2c(c1C(=O)Nc1ccc(F)c(C#N)c1)OCC(C)(C)NS2(=O)=O [Compound 135, N-(3-cyano-4-fluoro-phenyl)-3,3,7-trimethyl-1,1-dioxo-2,4-dihydropyrrolo[3,4-b][1,4,5]oxathiazepine-6-carboxamide] | 8.30 | > 25 µM |
| Cn1cc2c(c1C(=O)Nc1cc(F)c(F)c(F)c1)CCC1(COC1)NS2(=O)=O [Compound 136, 7-methyl-1,1-dioxo-N-(3,4,5-trifluorophenyl)spiro[4,5-dihydro-2H-pyrrolo[3,4-f]thiazepine-3,3′-oxetane]-6-carboxamide] | 7.80 | > 25 µM |
| Cn1cc2c(c1C(=O)Nc1ccc(F)c(C(F)F)c1)CCC1(COC1)NS2(=O)=O [Compound 137, N-[3-(difluoromethyl)-4-fluoro-phenyl]-7-methyl-1,1-dioxo-spiro[4,5-dihydro-2H-pyrrolo[3,4-f]thiazepine-3,3′-oxetane]-6-carboxamide] | 8.22 | > 25 µM |
| Cn1cc2c(c1C(=O)Nc1ccc(F)c(C#N)c1)CCC1(COC1)NS2(=O)=O [Compound 138, N-(3-cyano-4-fluoro-phenyl)-7-methyl-1,1-dioxo-spiro[4,5-dihydro-2H-pyrrolo[3,4-f]thiazepine-3,3′-oxetane]-6-carboxamide] | 7.54 | > 25 µM |
| Cn1cc2c(c1C(=O)Nc1ccc(F)c(C(F)F)c1)C=CC1(COC1)NS2(=O)=O [Compound 139, N-[3-(difluoromethyl)-4-fluoro-phenyl]-7-methyl-1,1-dioxo-spiro[2H-pyrrolo[3,4-f]thiazepine-3,3′-oxetane]-6-carboxamide] | 7.80 | > 25 µM |
| Cn1cc2c(c1C(=O)Nc1ccc(F)c(C#N)c1)C=CC1(COC1)NS2(=O)=O [Compound 140, N-(3-cyano-4-fluoro-phenyl)-7-methyl-1,1-dioxo-spiro[2H-pyrrolo-[3,4-f]thiazepine-3,3′-oxetane]-6-carboxamide] | 7.21 | > 25 µM |
| Cn1cc2c(c1C(=O)Nc1ccc(F)c(F)c1)OCC(C(O)c1ccccn1)NS2(=O)=O (stereo not drawn) [Compound 141a, N-(3,4-difluorophenyl)-3-[hydroxy(2-pyridyl)methyl]-7-methyl-1,1-dioxo-3,4-dihydro-2H-pyrrolo[3,4-b][1,4,5]oxathiazepine-6-carboxamide] | 7.52 | > 25 µM |
| Cn1cc2c(c1C(=O)Nc1cc(F)c(F)c(F)c1)C=CC1(COC1)NS2(=O)=O [Compound 143, 7-methyl-1,1-dioxo-N-(3,4,5-trifluorophenyl)spiro[2H-pyrrolo[3,4-f]thiazepine-3,3′-oxetane]-6-carboxamide] | 7.62 | > 25 µM |
| Cn1cc2c(c1C(=O)Nc1cc(F)c(F)c(F)c1)OC[C@H](C(C)(C)O)NS2(=O)=O [Compound 147, (3R)-3-(1-hydroxy-1-methyl-ethyl)-7-methyl-1,1-dioxo-N-(3,4,5-trifluorophenyl)-3,4-dihydro-2H-pyrrolo[3,4-b][1,4,5]oxathiazepine-6-carboxamide] | 7.89 | > 25 µM |
| Cn1cc2c(c1C(=O)Nc1ccnc(C(F)F)c1)OC[C@H](C(C)(C)O)NS2(=O)=O [Compound 151, (3R)—N-[2-(difluoromethyl)-4-pyridyl]-3-(1-hydroxy-1-methyl-ethyl)-7-methyl-1,1-dioxo-3,4-dihydro-2H-pyrrolo[3,4-b][1,4,5]oxathiazepine-6-carboxamide] | 7.12 | > 25 µM |
| Cc1c2c(c(C(=O)Nc3ccc(F)c(F)c3)n1C)CC[C@H](C)NS2(=O)=O [Compound 152, (3S)—N-(3,4-difluorophenyl)-3,7,8-trimethyl-1,1-dioxo-2,3,4,5-tetrahydropyrrolo[3,4-f]thiazepine-6-carboxamide] | 7.85 | > 25 µM |
